Source: paper PMC10384010, “Chromatographic Data in Statistical Analysis of BBB Permeability Indices” (Membranes, 2023)
Where two headings read alike, the source gives them in different places.

Experiments:
[1] = entering the CNS / not entering the CNS; ref Drugbank [36]; cited from earlier work
[2] = cited from earlier work
[3] = Normal-phase TLC on silica gel 60 F254 (Rf); assay type: physicochemical; conditions: water:methanol:acetonitrile 60:20:20, ammonium acetate pH 7.4
Protocol: (§1) The purity of the isolated substances was checked by TLC chromatography and densitometric scanning.
(§2) APIs were subjected to chromatographic in column (HPLC) and thin layer (TLC) formats. TLC chromatography was carried out on 20 cm × 20 cm glass plates by Merck, covered with silica gel and the addition of a fluorescent indicator. Merck TLC silica gel 60 F254 was used for the normal phase (NP). In the reverse phase (RP), RP-2 silanized plates were used (Merck TLC Silica gel 60 RP-2 F254, silanized). The mobile phase was buffered with ammonium acetate to pH 7.4 (LACH-NER, ammonium acetate).
(§3) Plates, after developing the chromatograms, were scanned using a densitometer (Desaga CD 60) with an analytical wavelength selected individually for drugs. The values of Rf (molecular descriptors: NP, RP) were determined.

[4] = Reversed-phase TLC on RP-2 silanized plates (Rf); assay type: physicochemical; conditions: silica gel 60 RP-2 F254 silanized; water:methanol:acetonitrile 60:20:20, ammonium acetate pH 7.4
Protocol: as §1, §2, §3

[5] = cited from earlier work; remark: listed apart in the source
[6] = HPLC on IAM (immobilized artificial membrane) column, retention factor; assay type: physicochemical; conditions: IAM.PC.DD.2 column; for k(IAM) retention factor: 10 mM phosphate buffer pH 7.4:acetonitrile 80:20; for logkIAM: logarithm of retention factor, phosphate buffer pH 7.4:acetonitrile 80:20
Protocol: Chromatographic data also came from an experiment with a HPLC IAM (immobilized artificial membrane) column (Regis Technologies Inc.: IAM.PC.DD.2, 10 µm; 4.6 mm × 10 mm). The column contains a standard membrane consisting of a phospholipid bilayer. Organic solvents (acetonitrile and methanol) and water (J.T. Baker HPLC) were used in HPLC. Sigma phosphate buffered saline tablets were used to prepare the phosphate buffer. The mobile phase was a mixture of 10 mM phosphate buffer at pH 7.4 and acetonitrile in the ratio of 80:20 (v/v) [35]. The mobile phase flow was set at 0.5 mL/min; detection was carried out with a UV–Vis detector. The obtained values of the retention factor (k IAM) were transformed into a logarithmic form and entered into the statistical analysis (descriptor: log k IAM).

[7] = plasma protein binding, given as fraction, ref Drugbank

Row | Compound | CNS+/- [1] | Kp,uu,brain (unbound brain-to-plasma drug partition coefficient) [2] | NP (Rf from NP TLC plate) [3] | RP (Rf from RP-2 TLC plate) [4] | PB (protein binding) [5, 7] | k(IAM) retention factor [6] | logkIAM [6] | Kp,uu,brain (unbound brain-to-plasma drug partition coefficient) ([2]; in vivo) | PB (protein binding) ([5]; plasma)
1 | CN(C)CCC=C1c2ccccc2CCc2ccccc21 [amitriptyline] | 1 | 1.33 | 0.32 | 0.67 | – | – | – | – | –
2 | NCC1(CC(=O)O)CCCCC1 [gabapentin] | – | 0.44 | – | – | 0.03 | – | – | – | –
3 | CC(=O)Nc1ccc(O)cc1 [paracetamol] | 1 | 0.73 | 0.93 | 0.92 | 0.25 | 0.32 | -0.49 | – | –
4 | CN(C)CCC=C1c2ccccc2COc2ccccc21 [doxepin] | 1 | 3.11 | 0.3 | – | 0.755 | – | – | – | –
5 | NC(=O)N1c2ccccc2C=Cc2ccccc21 [carbamazepine] | 1 | 0.76 | 0.95 | 0.83 | – | 1.50 | 0.18 | – | –
6 | CN(C)CCCN1c2ccccc2Sc2ccc(Cl)cc21 [chlorpromazine] | – | 3.41 | 0.43 | 0.49 | 0.9 | 58.85 | 1.77 | – | –
7 | COc1ccc(C(CN(C)C)C2(O)CCCCC2)cc1 (centres unmarked) [venlafaxine] | – | 1.91 | – | – | 0.27 | 8.25 | 0.92 | – | –
8 | O=C1NC(=O)C(c2ccccc2)(c2ccccc2)N1 [phenytoin] | 1 | 0.66 | 0.97 | 0.87 | 0.9 | 1.78 | 0.25 | – | –
9 | CN1CCN2c3ncccc3Cc3ccccc3C2C1 (centres unmarked) [mirtazapine] | 1 | 3.85 | 0.39 | 0.58 | – | 5.83 | 0.77 | – | –
10 | CCCN1C[C@H](CSC)C[C@@H]2c3cccc4[nH]cc(c34)C[C@H]21 [pergolide] | 1 | 3.19 | 0.48 | 0.55 | 0.9 | – | – | – | –
11 | CNCCC(Oc1ccc(C(F)(F)F)cc1)c1ccccc1 (centres unmarked) [fluoxetine] | – | 5.23 | 0.68 | 0.54 | 0.945 | 66.64 | 1.82 | – | –
12 | CN1CCN(C2=Nc3cc(Cl)ccc3Nc3ccccc32)CC1 [clozapine] | – | 3.83 | 0.45 | – | 0.99 | 50.94 | 1.71 | – | –
13 | OCCOCCN1CCN(C2=Nc3ccccc3Sc3ccccc32)CC1 [quetiapine] | 1 | 1.26 | 0.68 | 0.73 | 0.83 | 17.02 | 1.23 | – | –
14 | CN(C)CCc1c[nH]c2ccc(Cn3cncn3)cc12 [rizatriptan] | 1 | 0.04 | 0.2 | – | – | 2.53 | 0.40 | – | –
15 | CC[C@H]1OC(=O)[C@H](C)[C@@H](O[C@H]2C[C@@](C)(OC)[C@@H](O)[C@H](C)O2)[C@H](C)[C@@H](O[C@@H]2O[C@H](C)C[C@H](N(C)C)[C@H]2O)[C@](C)(O)C[C@@H](C)CN(C)[C@H](C)[C@@H](O)[C@]1(C)O [azithromycin] | 0 | – | 0.63 | 0.24 | 0.29 | 0.06 | -1.20 | – | –
16 | CSc1ccc2c(c1)N(CCC1CCCCN1C)c1ccccc1S2 (centres unmarked) [thioridazine] | 1 | 3.5 | 0.47 | 0.4 | – | 47.61 | 1.68 | – | –
17 | O=c1n(CCCN2CCN(c3cccc(Cl)c3)CC2)nc2ccccn12 [trazodone] | 1 | 1.54 | 0.71 | 0.76 | 0.92 | 9.30 | 0.97 | – | –
18 | O=C1CN=C(c2ccccn2)c2cc(Br)ccc2N1 [bromazepam] | 1 | – | 0.87 | 0.83 | 0.7 | 2.21 | 0.34 | – | –
19 | CN1CCN2c3ccccc3Cc3ccccc3C2C1 (centres unmarked) [mianserin] | 1 | 3.22 | 0.54 | 0.55 | 0.9 | 21.72 | 1.34 | – | –
20 | Fc1ccc([C@@H]2CCNC[C@H]2COc2ccc3c(c2)OCO3)cc1 [paroxetine] | 1 | – | 0.55 | 0.6 | 0.94 | 115.77 | 2.06 | – | –
21 | CN1C[C@H](C(=O)N[C@]2(C)O[C@@]3(O)[C@@H]4CCCN4C(=O)[C@H](Cc4ccccc4)N3C2=O)C[C@@H]2c3cccc4[nH]cc(c34)C[C@H]21 [dihydroergotamine] | 0 | – | 0.72 | 0.78 | – | – | – | 0.02 | 0.93
22 | CN1CCC(=C2c3ccccc3CC(=O)c3sccc32)CC1 [ketotifen] | 1 | – | 0.34 | 0.75 | 0.75 | 22.04 | 1.34 | – | –
23 | O=C(CCCN1CCC(O)(c2ccc(Cl)cc2)CC1)c1ccc(F)cc1 [haloperidol] | – | 1.77 | 0.66 | 0.61 | 0.92 | 23.74 | 1.38 | – | –
24 | Nc1nnc(-c2cccc(Cl)c2Cl)c(N)n1 [lamotrigine] | – | 4.86 | 0.89 | 0.87 | – | 0.71 | -0.15 | – | –
25 | CC(C)NCC(O)COc1ccc(COCCOC(C)C)cc1 (centres unmarked) [bisoprolol] | 0 | – | 0.67 | 0.57 | 0.3 | 6.74 | 0.83 | – | –
26 | CCC[C@H](N[C@@H](C)C(=O)N1[C@H](C(=O)O)C[C@@H]2CCCC[C@@H]21)C(=O)OCC [perindopril] | 0 | – | 0.47 | 0.57 | 0.15 | 0.18 | -0.76 | – | –
27 | CCCC(CCC)C(=O)O [valproic acid] | 1 | – | 0.69 | 0.04 | 0.85 | 0.08 | -1.09 | – | –
28 | Cc1ncc2n1-c1ccc(Cl)cc1C(c1ccccc1F)=NC2 [midazolam] | 1 | 1.08 | 0.82 | 0.66 | – | 5.69 | 0.76 | – | –
